Data as given in ChEMBL document CHEMBL3813672, “Discovery of anti-cancer activity for benzo[1,2,4]triazin-7-ones: Very strong correlation to pleurotin and thioredoxin reductase inhibition” (Bioorg Med Chem, 2016).

Assays:
[1] = Cytotoxicity against human GM00637 cells assessed as reduction in cell viability after 72 hrs by MTT assay; assay type: cell-based; conditions: GM00637, 72 h
[2] = Cytotoxicity against human DU145 cells assessed as reduction in cell viability after 72 hrs by MTT assay; assay type: functional, cell-based; conditions: DU-145, 72 h
[3] = tested on: MCF7; assay: Cytotoxicity against human MCF7 cells assessed as reduction in cell viability after 72 hrs by MTT assay; assay type: functional, cell-based; conditions: MCF7, 72 h
[4] = Inhibition of recombinant human TRX1/human placental thioredoxin reductase using DTNB as substrate in presence of NADPH by spectrophotometric method
[5] = target: Thioredoxin reductase (Homo sapiens, UniProt Q16881+Q9NNW7+Q86VQ6); assay: Irreversible inhibition of thioredoxin reductase (unknown origin); assay type: protein assay

With `COc1cc2nc(-c3ccccc3)nn(-c3ccccc3)c-2cc1=O` the IC50 [1] was > 5 µM, the IC50 [2] was > 5 µM and the IC50 [3] was > 5 µM.
Compound `O=c1cc2n(-c3ccccc3)nc(-c3ccccc3)nc-2cc1N1CCOCC1` has an IC50 [1] of 2.29 µM, an IC50 [2] of 3.21 µM and an IC50 [3] of 2.37 µM.
For `CC(=O)Nc1cc2nc(-c3ccccc3)nn(-c3ccccc3)c-2cc1=O`, the IC50 [1] was > 5 µM, the IC50 [2] was > 5 µM and the IC50 [3] was > 5 µM.
In the case of `C[C@@H]1CO[C@@H]2C3=C(C(=O)C=CC3=O)[C@H]3OC(=O)[C@@H]4CC[C@H]5C1CC[C@@]25[C@@H]34`, the IC50 [1] is reported as 0.51 µM, the IC50 [2] is reported as 0.43 µM and the IC50 [3] is reported as 0.28 µM. It also gave an IC50 [4] of 0.17 µM and a Ki [5] of 0.28 µM.
`CCNc1cc2nc(-c3ccccc3)nn(-c3ccccc3)c-2cc1=O` showed an IC50 [1] of 0.24 µM, an IC50 [2] of 0.22 µM and an IC50 [3] of 1.62 µM.
Work on `O=c1cc2n(-c3ccccc3)nc(-c3ccccc3)nc-2cc1N1CCSCC1` yielded an IC50 [1] of 1.63 µM, an IC50 [2] of 1.22 µM and an IC50 [3] of 0.97 µM.
In the case of `Nc1cc2nc(-c3ccccc3)nn(-c3ccccc3)c-2cc1=O`, the IC50 [1] is reported as 2.04 µM, the IC50 [2] is reported as 1.83 µM and the IC50 [3] is reported as 0.95 µM.
`CNc1cc2nc(-c3ccccc3)nn(-c3ccccc3)c-2cc1=O` showed an IC50 [1] of 0.93 µM, an IC50 [2] of 0.98 µM and an IC50 [3] of 0.69 µM.
For `O=c1cc2n(-c3ccccc3)nc(-c3ccccc3)nc-2cc1N1CCCC1`, the IC50 [1] was 1.79 µM, the IC50 [2] was 2.46 µM and the IC50 [3] was 0.36 µM.
Work on `O=c1cc2n(-c3ccccc3)nc(-c3ccccc3)nc-2cc1N1CCCCC1` yielded an IC50 [1] of 1.19 µM, an IC50 [2] of 0.61 µM and an IC50 [3] of 1.98 µM.
With `CCN(CC)c1cc2nc(-c3ccccc3)nn(-c3ccccc3)c-2cc1=O` the IC50 [1] was 2.73 µM, the IC50 [2] was 3.11 µM and the IC50 [3] was > 5 µM.
In the case of `CCOc1cc2nc(-c3ccccc3)nn(-c3ccccc3)c-2cc1=O`, the IC50 [1] is reported as > 5 µM, the IC50 [2] is reported as > 5 µM and the IC50 [3] is reported as > 5 µM.
